pIC50: −log10 of the molar value.
How the values were obtained:
[1] = system: breast line MDA468; test: In vitro cell culture growth assay (MTS), MDA468; type: cell-based; settings: Homo sapiens, 72 h, MDA468 cells, three days after drug treatment
Summary of the method: (§1)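 Inhibitors were added one day after plating, and viable cells were measured 3 days later by MTS conversion (absorbance 490 nm).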

[2] = system: prostate line LNCap; test: In vitro cell culture growth assay (MTS), LNCap; type: cell-based; settings: Homo sapiens, LNCaP, 72 h, LNCap cells, three days after drug treatment
Summary of the method: as §1

[3] = biological target: T1, Human mTOR (FLAG-TOR) (Homo sapiens, UniProt P42345); test: Human mTOR kinase assay with purified enzyme, DELFIA format; type: biochemical
T1 construct: FLAG
Summary of the method: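 Purified FLAG-mTOR in HEPES pH 7.4 buffer with 10 mM MnCl2 was preincubated with inhibitor and reacted 2 h at room temperature with His6-S6K substrate, then stopped with EDTA/EGTA. Phospho-T389 S6K detected by DELFIA with Eu-labelled antibody (40 ng/mL) after plate capture; inhibition computed from signal.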

[4] = biological target: T2, PI3K (Homo sapiens, UniProt P48736); test: Fluorescence polarization assay for PI3K; type: biochemical; settings: PI3 Kinase γ; read-out: PI3 Kinase γ IC50
T2 construct: PI3 Kinase γ IC50; other: PI3 Kinase γ; other: PI3 Kinase γ isoform, fluorescence polarization
Summary of the method: (§2)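 PI3K was preincubated with compound (final DMSO 1%), and the reaction was started with PIP2/ATP substrate and run 30–60 min. It was stopped with a detector mix giving 10 nM red probe and 70 nM GST-GRP.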

[5] = biological target: T3, PI3K (Homo sapiens, UniProt P42336); test: Fluorescence polarization assay for PI3K; type: biochemical; settings: PI3 Kinase α; read-out: PI3 Kinase α IC50
T3 construct: PI3 Kinase α IC50; other: PI3 Kinase α; other: PI3 Kinase α isoform, fluorescence polarization
Summary of the method: as §2

T2 sequence (P48736 whole entry, canonical isoform): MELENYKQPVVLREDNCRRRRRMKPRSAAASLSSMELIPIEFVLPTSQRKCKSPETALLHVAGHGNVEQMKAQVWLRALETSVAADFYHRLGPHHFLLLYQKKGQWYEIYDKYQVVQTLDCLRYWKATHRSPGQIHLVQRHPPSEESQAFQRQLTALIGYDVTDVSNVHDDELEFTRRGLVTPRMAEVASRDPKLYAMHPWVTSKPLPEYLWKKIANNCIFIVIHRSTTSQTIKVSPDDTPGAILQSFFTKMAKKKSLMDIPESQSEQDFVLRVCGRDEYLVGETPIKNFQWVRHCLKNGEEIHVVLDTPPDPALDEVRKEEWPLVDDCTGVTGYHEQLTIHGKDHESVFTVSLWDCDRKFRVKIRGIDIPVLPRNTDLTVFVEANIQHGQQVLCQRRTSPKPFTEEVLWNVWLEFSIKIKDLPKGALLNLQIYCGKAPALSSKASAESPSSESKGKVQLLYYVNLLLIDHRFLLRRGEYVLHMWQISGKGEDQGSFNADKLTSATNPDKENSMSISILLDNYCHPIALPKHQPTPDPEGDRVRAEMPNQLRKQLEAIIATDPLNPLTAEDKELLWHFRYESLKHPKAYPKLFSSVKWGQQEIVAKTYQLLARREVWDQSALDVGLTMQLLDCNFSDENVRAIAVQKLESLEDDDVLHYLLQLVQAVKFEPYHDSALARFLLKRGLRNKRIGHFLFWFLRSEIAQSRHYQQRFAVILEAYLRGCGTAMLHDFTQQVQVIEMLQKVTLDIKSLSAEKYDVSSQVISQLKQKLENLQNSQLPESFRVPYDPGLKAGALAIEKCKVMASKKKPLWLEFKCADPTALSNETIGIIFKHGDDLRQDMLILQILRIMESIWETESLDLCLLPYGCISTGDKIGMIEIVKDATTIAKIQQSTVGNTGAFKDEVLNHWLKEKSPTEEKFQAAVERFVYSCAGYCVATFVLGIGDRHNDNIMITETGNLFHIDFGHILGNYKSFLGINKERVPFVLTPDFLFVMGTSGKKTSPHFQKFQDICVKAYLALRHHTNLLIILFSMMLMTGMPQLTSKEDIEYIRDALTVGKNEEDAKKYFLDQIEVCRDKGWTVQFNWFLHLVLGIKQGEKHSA
T3 sequence (P42336 whole entry, canonical isoform): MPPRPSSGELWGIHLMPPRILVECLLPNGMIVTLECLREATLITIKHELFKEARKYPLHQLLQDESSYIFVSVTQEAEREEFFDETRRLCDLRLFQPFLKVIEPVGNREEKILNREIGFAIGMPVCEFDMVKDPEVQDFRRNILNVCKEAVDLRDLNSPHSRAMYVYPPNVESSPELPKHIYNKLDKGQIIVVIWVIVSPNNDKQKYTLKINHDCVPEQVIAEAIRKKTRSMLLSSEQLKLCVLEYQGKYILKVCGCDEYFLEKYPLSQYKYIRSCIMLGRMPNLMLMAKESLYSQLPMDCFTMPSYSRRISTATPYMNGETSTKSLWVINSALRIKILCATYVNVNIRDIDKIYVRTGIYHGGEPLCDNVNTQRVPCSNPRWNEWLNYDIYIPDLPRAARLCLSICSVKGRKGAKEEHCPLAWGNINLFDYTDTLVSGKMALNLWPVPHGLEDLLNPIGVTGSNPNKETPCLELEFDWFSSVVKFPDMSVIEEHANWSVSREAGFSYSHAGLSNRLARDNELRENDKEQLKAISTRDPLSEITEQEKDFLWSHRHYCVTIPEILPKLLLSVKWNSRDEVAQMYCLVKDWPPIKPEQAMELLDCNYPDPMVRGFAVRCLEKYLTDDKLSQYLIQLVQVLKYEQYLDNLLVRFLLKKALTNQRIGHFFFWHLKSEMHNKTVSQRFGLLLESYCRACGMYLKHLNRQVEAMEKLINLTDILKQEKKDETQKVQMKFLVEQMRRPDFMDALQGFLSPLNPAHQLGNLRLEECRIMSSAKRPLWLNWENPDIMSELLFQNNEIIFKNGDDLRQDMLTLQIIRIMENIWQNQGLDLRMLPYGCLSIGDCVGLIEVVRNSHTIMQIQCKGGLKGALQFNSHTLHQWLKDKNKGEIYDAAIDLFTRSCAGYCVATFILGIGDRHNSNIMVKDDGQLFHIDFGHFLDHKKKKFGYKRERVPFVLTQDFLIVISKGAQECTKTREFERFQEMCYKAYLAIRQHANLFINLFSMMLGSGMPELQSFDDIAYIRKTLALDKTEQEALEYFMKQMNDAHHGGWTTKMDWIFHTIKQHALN

SMILES | pIC50 [2] | pIC50 [3] | pIC50 [4] | pIC50 [5] | pIC50 [1]
CCNC(=O)Nc1ccc(-c2nc(N3CC4CCC(C3)O4)c3cnn(CCN(C)C)c3n2)cc1 [Example 160, 1-(4-{1-[2-(dimethylamino)ethyl]-4-(8-oxa-3-azabicyclo[3.2.1]oct-3-yl)-1H-pyrazolo[3,4-d]pyrimidin-6-yl}phenyl)-3-ethylurea] | 6.55 | 7.89 | < 5.00 | 5.51 | 5.74
CN(C)CCn1ncc2c(N3CC4CCC(C3)O4)nc(-c3ccc(NC(=O)NC4CC4)cc3)nc21 [Example 161, 1-cyclopropyl-3-(4-{1-[2-(dimethylamino)ethyl]-4-(8-oxa-3-azabicyclo[3.2.1]oct-3-yl)-1H-pyrazolo[3,4-d]pyrimidin-6-yl}phenyl)urea] | 6.68 | 8.08 | < 5.00 | 5.44 | 5.66
CN(C)CCn1ncc2c(N3CC4CCC(C3)O4)nc(-c3ccc(NC(=O)Nc4ccncc4)cc3)nc21 [Example 162, 1-(4-{1-[2-(dimethylamino)ethyl]-4-(8-oxa-3-azabicyclo[3.2.1]oct-3-yl)-1H-pyrazolo[3,4-d]pyrimidin-6-yl}phenyl)-3-pyridin-4-ylurea] | 7.30 | 8.92 | 6.32 | 6.76 | 6.70
CN(C)CCn1ncc2c(N3CC4CCC(C3)O4)nc(-c3ccc(NC(=O)Nc4ccc(CO)cc4)cc3)nc21 [Example 163, 1-(4-{1-[2-(dimethylamino)ethyl]-4-(8-oxa-3-azabicyclo[3.2.1]oct-3-yl)-1H-pyrazolo[3,4-d]pyrimidin-6-yl}phenyl)-3-[4-(hydroxymethyl)phenyl]urea] | 7.55 | 9.06 | 5.89 | 7.37 | 7.05
COC(=O)N1CCC(n2ncc3c(N4CC5CCC(C4)O5)nc(-c4ccc(NC(=O)NCCN)cc4)nc32)CC1 [Example 168, methyl 4-[6-(4-{[(2-aminoethyl)carbamoyl]amino}phenyl)-4-(8-oxa-3-azabicyclo[3.2.1]oct-3-yl)-1H-pyrazolo[3,4-d]pyrimidin-1-yl]piperidine-1-carboxylate] | 5.82 | 8.50 | 5.49 | 6.66 | 5.05
COC(=O)N1CCC(n2ncc3c(N4CC5CCC(C4)O5)nc(-c4ccc(NC(=O)NCCN(C)C)cc4)nc32)CC1 [Example 169, methyl 4-{6-[4-({[2-(dimethylamino)ethyl]carbamoyl}amino)phenyl]-4-(8-oxa-3-azabicyclo[3.2.1]oct-3-yl)-1H-pyrazolo[3,4-d]pyrimidin-1-yl}piperidine-1-carboxylate] | 6.30 | 7.39 | 5.26 | 6.37 | 5.66
COC(=O)N1CCC(n2ncc3c(N4CC5CCC(C4)O5)nc(-c4ccc(NC(=O)NCCN5CCN(C)CC5)cc4)nc32)CC1 [Example 170, methyl 4-{6-[4-({[2-(4-methylpiperazin-1-yl)ethyl]carbamoyl}amino)phenyl]-4-(8-oxa-3-azabicyclo[3.2.1]oct-3-yl)-1H-pyrazolo[3,4-d]pyrimidin-1-yl}piperidine-1-carboxylate] | 5.89 | 7.29 | 5.35 | 6.15 | 5.22
COC(=O)N1CCC(n2ncc3c(N4CC5CCC(C4)O5)nc(-c4ccc(NC(=O)Nc5ccccc5CO)cc4)nc32)CC1 [Example 172, methyl 4-{6-[4-({[2-(hydroxymethyl)phenyl]carbamoyl}amino)phenyl]-4-(8-oxa-3-azabicyclo[3.2.1]oct-3-yl)-1H-pyrazolo[3,4-d]pyrimidin-1-yl}piperidine-1-carboxylate] | 6.70 | 8.52 | 5.76 | 5.86 | 5.89
CCn1ncc2c(N3CC4CCC(C3)O4)nc(-c3ccc(NC(=O)NCCN)cc3)nc21 [Example 173, 1-(2-aminoethyl)-3-{4-[1-ethyl-4-(8-oxa-3-azabicyclo[3.2.1]oct-3-yl)-1H-pyrazolo[3,4-d]pyrimidin-6-yl]phenyl}urea] | 6.57 | 8.65 | 5.50 | 6.57 | 6.19

Now those with a higher pIC50 [2], led by results:

pIC50 [2] | pIC50 [3] | pIC50 [4] | pIC50 [5] | SMILES | pIC50 [1]
7.74 | 8.31 | 5.42 | 6.73 | CN(C)CCn1ncc2c(N3CC4CCC(C3)O4)nc(-c3ccc(NC(=O)Nc4ccc(N5CCN(C)CC5)cc4)cc3)nc21 [Example 159, 1-(4-{1-[2-(dimethylamino)ethyl]-4-(8-oxa-3-azabicyclo[3.2.1]oct-3-yl)-1H-pyrazolo[3,4-d]pyrimidin-6-yl}phenyl)-3-[4-(4-methylpiperazin-1-yl)phenyl]urea] | 7.05
> 9.00 | 10.10 | 5.74 | 7.54 | COC(=O)N1CCC(n2ncc3c(N4CC5CCC(C4)O5)nc(-c4ccc(NC(=O)Nc5ccc(CO)cc5)cc4)nc32)CC1 [Example 164, methyl 4-{6-[4-({[4-(hydroxymethyl)phenyl]carbamoyl}amino)phenyl]-4-(8-oxa-3-azabicyclo[3.2.1]oct-3-yl)-1H-pyrazolo[3,4-d]pyrimidin-1-yl}piperidine-1-carboxylate] | > 9.00
> 9.00 | 10.02 | 5.60 | 7.27 | COC(=O)N1CCC(n2ncc3c(N4CC5CCC(C4)O5)nc(-c4ccc(NC(=O)Nc5ccc(CCO)cc5)cc4)nc32)CC1 [Example 165, methyl 4-{6-[4-({[4-(2-hydroxyethyl)phenyl]carbamoyl}amino)phenyl]-4-(8-oxa-3-azabicyclo[3.2.1]oct-3-yl)-1H-pyrazolo[3,4-d]pyrimidin-1-yl}piperidine-1-carboxylate] | > 9.00
> 9.00 | 9.32 | 6.06 | 6.93 | COC(=O)N1CCC(n2ncc3c(N4CC5CCC(C4)O5)nc(-c4ccc(NC(=O)Nc5ccc(N6CCN(C)CC6)cc5)cc4)nc32)CC1 [Example 166, methyl 4-{6-[4-({[4-(4-methylpiperazin-1-yl)phenyl]carbamoyl}amino)phenyl]-4-(8-oxa-3-azabicyclo[3.2.1]oct-3-yl)-1H-pyrazolo[3,4-d]pyrimidin-1-yl}piperidine-1-carboxylate] | 8.70
> 9.00 | 9.37 | 5.91 | 6.63 | COC(=O)N1CCC(n2ncc3c(N4CC5CCC(C4)O5)nc(-c4ccc(NC(=O)Nc5ccc(N6CCN(C)CC6)nc5)cc4)nc32)CC1 [Example 167, methyl 4-{6-[4-({[6-(4-methylpiperazin-1-yl)pyridin-3-yl]carbamoyl}amino)phenyl]-4-(8-oxa-3-azabicyclo[3.2.1]oct-3-yl)-1H-pyrazolo[3,4-d]pyrimidin-1-yl}piperidine-1-carboxylate] | 8.40
8.30 | 9.67 | 5.74 | 7.27 | COC(=O)N1CCC(n2ncc3c(N4CC5CCC(C4)O5)nc(-c4ccc(NC(=O)Nc5cccc(CO)c5)cc4)nc32)CC1 [Example 171, methyl 4-{6-[4-({[3-(hydroxymethyl)phenyl]carbamoyl}amino)phenyl]-4-(8-oxa-3-azabicyclo[3.2.1]oct-3-yl)-1H-pyrazolo[3,4-d]pyrimidin-1-yl}piperidine-1-carboxylate] | 8.10

From patent US8129371B2, “Thienopyrimidine and pyrazolopyrimidine compounds and their use as mTOR kinase and PI3 kinase inhibitors” (Wyeth LLC, priority 2007, dated 2012)
